Test [1] concerns the target human α3β2 nAChR (Homo sapiens, UniProt P17787+P32297). Description: cell-based. The test is classed as cell-based.
Test [2] addresses human α3β4 nAChR (Homo sapiens, UniProt P30926+P32297). Description: cell-based.
For test [3], the target named is Ac-AChBP (Aplysia californica, UniProt Q8WSF8). Description: biochemical. It is filed as binding.

Structures are written as SMILES. Where a SMILES comes first, the peptide text is derived from it. Bridges are numbered along the chain shown (N, C = ends). Some results are limits rather than exact numbers.

Sequence of human α3β4 nAChR (P32297 32-505 limits assumed): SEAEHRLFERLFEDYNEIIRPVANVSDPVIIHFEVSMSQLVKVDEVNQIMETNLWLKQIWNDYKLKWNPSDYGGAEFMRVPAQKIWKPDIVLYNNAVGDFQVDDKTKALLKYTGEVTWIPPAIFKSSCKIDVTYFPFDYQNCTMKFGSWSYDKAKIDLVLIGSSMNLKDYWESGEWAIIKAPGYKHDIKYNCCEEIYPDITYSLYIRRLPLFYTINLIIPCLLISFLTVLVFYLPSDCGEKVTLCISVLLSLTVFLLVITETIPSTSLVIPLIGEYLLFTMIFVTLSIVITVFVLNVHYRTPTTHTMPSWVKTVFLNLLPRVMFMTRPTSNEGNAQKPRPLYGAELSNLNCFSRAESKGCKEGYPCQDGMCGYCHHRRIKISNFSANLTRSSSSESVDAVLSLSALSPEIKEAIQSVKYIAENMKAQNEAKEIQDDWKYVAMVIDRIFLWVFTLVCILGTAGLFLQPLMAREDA
Sequence of human α3β4 nAChR (P30926 22-498 limits assumed): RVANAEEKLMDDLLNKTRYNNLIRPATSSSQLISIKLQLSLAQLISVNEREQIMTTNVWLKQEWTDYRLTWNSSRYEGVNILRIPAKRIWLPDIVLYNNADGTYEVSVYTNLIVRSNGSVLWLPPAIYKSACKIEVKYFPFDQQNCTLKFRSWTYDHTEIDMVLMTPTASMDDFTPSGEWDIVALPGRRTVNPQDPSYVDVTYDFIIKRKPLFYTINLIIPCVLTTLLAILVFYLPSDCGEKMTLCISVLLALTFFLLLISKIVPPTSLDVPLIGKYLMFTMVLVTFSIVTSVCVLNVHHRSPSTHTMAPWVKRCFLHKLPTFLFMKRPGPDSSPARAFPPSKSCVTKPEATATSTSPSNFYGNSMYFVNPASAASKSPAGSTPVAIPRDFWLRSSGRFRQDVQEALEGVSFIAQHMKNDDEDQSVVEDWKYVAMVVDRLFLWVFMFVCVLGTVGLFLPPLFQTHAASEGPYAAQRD
Sequence of human α3β2 nAChR (P32297 32-505 limits assumed): as the sequence (P32297 32-505 limits assumed) above
Sequence of human α3β2 nAChR (P17787 26-502 limits assumed): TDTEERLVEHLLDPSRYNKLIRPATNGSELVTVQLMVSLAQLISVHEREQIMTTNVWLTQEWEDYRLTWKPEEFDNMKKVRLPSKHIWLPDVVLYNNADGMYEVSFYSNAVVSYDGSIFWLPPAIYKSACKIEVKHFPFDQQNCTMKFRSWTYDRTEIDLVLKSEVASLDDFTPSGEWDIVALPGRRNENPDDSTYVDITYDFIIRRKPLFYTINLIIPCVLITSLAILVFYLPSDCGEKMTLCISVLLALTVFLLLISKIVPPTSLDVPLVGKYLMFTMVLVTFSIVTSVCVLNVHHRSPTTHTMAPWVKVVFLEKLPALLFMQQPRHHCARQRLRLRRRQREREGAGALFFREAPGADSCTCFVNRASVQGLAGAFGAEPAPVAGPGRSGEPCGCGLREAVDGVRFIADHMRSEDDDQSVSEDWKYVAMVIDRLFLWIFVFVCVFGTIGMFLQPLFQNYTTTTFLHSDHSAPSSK
Sequence of Ac-AChBP (Q8WSF8 20-236 limits assumed): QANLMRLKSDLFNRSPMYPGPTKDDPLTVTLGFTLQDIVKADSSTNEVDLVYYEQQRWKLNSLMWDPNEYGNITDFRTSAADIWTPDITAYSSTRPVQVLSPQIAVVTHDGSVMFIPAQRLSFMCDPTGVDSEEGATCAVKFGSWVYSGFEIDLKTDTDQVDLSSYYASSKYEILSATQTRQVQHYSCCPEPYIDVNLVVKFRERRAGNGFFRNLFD

Broadly, the IC50 is the concentration that inhibits the measured activity by half. A low value points to higher potency. `CC[C@H](C)[C@@H]1NC(=O)[C@H](Cc2c[nH]cn2)NC(=O)[C@H](CCC(N)=O)NC(=O)[C@H](CC(N)=O)NC(=O)[C@H](CC(N)=O)NC(=O)CNC(=O)[C@H](C)NC(=O)[C@@H]2CSSC[C@H](NC(=O)CN)C(=O)N[C@@H](CSSC[C@@H](C(N)=O)NC1=O)C(=O)N[C@@H](CO)C(=O)N[C@@H](Cc1c[nH]cn1)C(=O)N1CCC[C@H]1C(=O)NCC(=O)N2` [GIC(A7G)] (H-GCCSHPGCAGNNQHIC-NH2; disulfide 2-8, 3-16): the values for the IC50 in test [1] and in test [2] were 4.21 µM and over 10 µM, respectively.
For the compound `CC[C@H](C)[C@@H]1NC(=O)[C@H](Cc2c[nH]cn2)NC(=O)[C@H](CCC(N)=O)NC(=O)[C@H](CC(N)=O)NC(=O)[C@H](CC(N)=O)NC(=O)CNC(=O)[C@H](C)NC(=O)[C@@H]2CSSC[C@H](NC(=O)CN)C(=O)N[C@@H](CSSC[C@@H](C(N)=O)NC1=O)C(=O)N[C@@H](CO)C(=O)N[C@@H](Cc1c[nH]cn1)C(=O)N1CCC[C@H]1C(=O)N[C@@H](CC(C)C)C(=O)N2` [GIC(A7L)] (H-GCCSHPLCAGNNQHIC-NH2; disulfide 2-8, 3-16), in test [1], the “Decrease in the inhibition of α3β2 nAChR versus wild-type GIC” value was “more than 10,000 fold” and the IC50 was over 10 µM. The same compound gave an IC50 in test [2] of over 10 µM.
For `CC[C@H](C)[C@@H]1NC(=O)[C@H](Cc2c[nH]cn2)NC(=O)[C@H](CCC(N)=O)NC(=O)[C@H](CC(N)=O)NC(=O)[C@H](C)NC(=O)CNC(=O)[C@H](C)NC(=O)[C@@H]2CSSC[C@H](NC(=O)CN)C(=O)N[C@@H](CSSC[C@@H](C(N)=O)NC1=O)C(=O)N[C@@H](CO)C(=O)N[C@@H](Cc1c[nH]cn1)C(=O)N1CCC[C@H]1C(=O)N[C@@H](C)C(=O)N2` [GIC(N11A)] (H-GCCSHPACAGANQHIC-NH2; disulfide 2-8, 3-16), the results for the IC50 in test [1] and in test [2] were 1.6 µM and over 10 µM, respectively.
The corresponding values for `CC[C@H](C)[C@@H]1NC(=O)[C@H](Cc2c[nH]cn2)NC(=O)[C@H](C)NC(=O)[C@H](CC(N)=O)NC(=O)[C@H](CC(N)=O)NC(=O)CNC(=O)[C@H](C)NC(=O)[C@@H]2CSSC[C@H](NC(=O)CN)C(=O)N[C@@H](CSSC[C@@H](C(N)=O)NC1=O)C(=O)N[C@@H](CO)C(=O)N[C@@H](Cc1c[nH]cn1)C(=O)N1CCC[C@H]1C(=O)N[C@@H](C)C(=O)N2` [GIC(Q13A)] are 0.00841 µM and 0.66 µM.
For `CC[C@H](C)[C@@H]1NC(=O)[C@H](Cc2c[nH]cn2)NC(=O)[C@H](CCC(N)=O)NC(=O)[C@H](CC(N)=O)NC(=O)[C@H](CC(N)=O)NC(=O)CNC(=O)[C@H](C)NC(=O)[C@@H]2CSSC[C@H](NC(=O)CN)C(=O)N[C@@H](CSSC[C@@H](C(N)=O)NC1=O)C(=O)N[C@@H](CO)C(=O)N[C@@H](C)C(=O)N1CCC[C@H]1C(=O)N[C@@H](C)C(=O)N2` [GIC(H5A)] (H-GCCSAPACAGNNQHIC-NH2; disulfide 2-8, 3-16), in test [3], the “Increase in the IC50 value for Ac-AChBP versus wild-type GIC” value is about 100 fold. Also, in test [1], the “Decrease in the inhibition of α3β2 nAChR versus wild-type GIC” value is “more than 10,000 fold” and the IC50 was over 10 µM. For the same compound, the IC50 in test [2] is over 10 µM.
As to `CC[C@H](C)[C@@H]1NC(=O)[C@H](Cc2c[nH]cn2)NC(=O)[C@H](CCC(N)=O)NC(=O)[C@H](C)NC(=O)[C@H](CC(N)=O)NC(=O)CNC(=O)[C@H](C)NC(=O)[C@@H]2CSSC[C@H](NC(=O)CN)C(=O)N[C@@H](CSSC[C@@H](C(N)=O)NC1=O)C(=O)N[C@@H](CO)C(=O)N[C@@H](Cc1c[nH]cn1)C(=O)N1CCC[C@H]1C(=O)N[C@@H](C)C(=O)N2` [GIC(N12A)] (H-GCCSHPACAGNAQHIC-NH2; disulfide 2-8, 3-16), the IC50 in test [1] was 1.98 µM; in test [2] it was over 10 µM.

The values above are taken from PMC4772116 (Scientific Reports, 2016).
